Key:
[1] = target: T1, Recombinant STAT6 protein (STAT6(W123-T658)) (Homo sapiens, UniProt P42226); test: STAT6 Fluorescence Polarization (FP) Assay; format: binding; conditions: STAT6(W123-T658) 250 nM, probe 5-FAM-ApYKPFQDLI-NH2 2 nM, 45-minute incubation
T1 construct: STAT6(W123-T658)
T1 sequence (P42226 123-658): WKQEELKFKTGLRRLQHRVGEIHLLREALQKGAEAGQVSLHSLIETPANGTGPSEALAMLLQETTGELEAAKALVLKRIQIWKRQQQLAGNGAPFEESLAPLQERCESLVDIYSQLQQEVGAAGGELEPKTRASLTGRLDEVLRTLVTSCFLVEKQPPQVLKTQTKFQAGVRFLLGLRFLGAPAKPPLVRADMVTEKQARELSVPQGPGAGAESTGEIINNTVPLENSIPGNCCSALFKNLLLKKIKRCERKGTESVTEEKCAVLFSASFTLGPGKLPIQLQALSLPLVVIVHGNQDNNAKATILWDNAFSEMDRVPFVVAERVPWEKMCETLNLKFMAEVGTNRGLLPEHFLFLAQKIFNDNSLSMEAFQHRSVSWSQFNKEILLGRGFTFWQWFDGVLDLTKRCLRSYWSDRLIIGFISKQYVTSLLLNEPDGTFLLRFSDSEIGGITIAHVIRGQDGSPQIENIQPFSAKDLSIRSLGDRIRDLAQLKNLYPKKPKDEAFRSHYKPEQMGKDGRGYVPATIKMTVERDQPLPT
How it was run: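 STAT6 (W123-T658) at 250 nM mixed with 2 nM 5-FAM-ApYKPFQDLI-NH2 probe in HEPES pH 7.4 buffer with DTT and Tween 20, 1% DMSO final. Polarization read after 45 min at room temperature; IC50 by nonlinear regression of mP versus log concentration, reported in bins A–D.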

[2] = target: T2, Recombinant STAT3 protein (STAT3(G127-I722)) (Homo sapiens, UniProt P40763); test: STAT3 Fluorescence Polarization (FP) Assay; format: binding; conditions: STAT3(G127-I722) 25 nM, probe 5-FAM-GpYLPQTV-NH2 2 nM, 45-minute incubation
T2 construct: STAT3(G127-I722)
How it was run: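 STAT3(G127-I722) at 25 nM and 5-FAM-GpYLPQTV-NH2 probe at 2 nM in HEPES pH 7.4 buffer with NaCl, EDTA, Tween 20, DTT; 1% DMSO. FP read after 45 min at room temperature; IC50 by nonlinear regression of mP vs log concentration, binned A ≤100 nM to D >10 μM.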

T2 sequence (P40763 127-722, species assumed): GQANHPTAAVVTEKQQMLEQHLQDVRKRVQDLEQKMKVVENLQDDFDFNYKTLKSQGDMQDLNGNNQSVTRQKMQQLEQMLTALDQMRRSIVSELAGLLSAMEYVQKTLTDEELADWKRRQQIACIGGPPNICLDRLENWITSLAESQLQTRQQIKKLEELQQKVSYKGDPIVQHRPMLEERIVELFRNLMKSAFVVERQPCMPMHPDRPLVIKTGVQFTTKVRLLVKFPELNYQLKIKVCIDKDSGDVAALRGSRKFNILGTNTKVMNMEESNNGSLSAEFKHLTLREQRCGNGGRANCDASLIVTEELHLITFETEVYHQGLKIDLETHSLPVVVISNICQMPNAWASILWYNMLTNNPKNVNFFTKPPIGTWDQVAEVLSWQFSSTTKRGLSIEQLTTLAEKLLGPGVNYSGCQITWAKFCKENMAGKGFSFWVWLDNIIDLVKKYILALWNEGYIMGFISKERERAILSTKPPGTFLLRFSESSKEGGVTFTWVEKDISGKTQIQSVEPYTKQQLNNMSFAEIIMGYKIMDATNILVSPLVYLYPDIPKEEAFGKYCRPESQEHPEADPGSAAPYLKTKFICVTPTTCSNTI

Row | IC50 [1] [µM] | IC50 [2] [µM] | SMILES
1 | 0.3 to 3 | 0.1 to 1 | O=C(N[C@H]1C[C@@H]2C[C@@H]2C[C@H]2CC[C@@H](C(=O)Nc3ccc(-c4ccccc4)cc3)N2C1=O)c1cc2cc(C(F)(F)P(=O)(O)O)ccc2s1 [Example 3, ((2-(((3S,6S,7aS,8aR,9aR)-3-([1,1′-biphenyl]-4-ylcarbamoyl)-5-oxodecahydro-1H-cyclopropa[d]pyrrolo[1,2-a]azocin-6-yl)carbamoyl)benzo[b]thiophen-5-yl)difluoromethyl)phosphonic acid]
2 | 0.3 to 3 | 0.1 to 1 | O=C(N[C@H]1C[C@@H]2C[C@@H]2C[C@H]2CC[C@@H](C(=O)N3CCN(C(=O)[C@@H]4CCOC4)CC3)N2C1=O)c1cc2cc(C(F)(F)P(=O)(O)O)ccc2s1 [Example 7, (difluoro(2-(((3S,6S,7aS,8aR,9aR)-5-oxo-3-(4-((R)-tetrahydrofuran-3-carbonyl)piperazine-1-carbonyl)decahydro-1H-cyclopropa[d]pyrrolo[1,2-a]azocin-6-yl)carbamoyl)benzo[b]thiophen-5-yl)methyl)phosphonic acid]
3 | 3 to 30 | 0.1 to 1 | O=C(N[C@H]1C[C@@H]2C[C@@H]2C[C@H]2CC[C@@H](C(=O)N3CCN(C(=O)[C@H]4CCOC4)CC3)N2C1=O)c1cc2cc(C(F)(F)P(=O)(O)O)ccc2s1 [Example 8, (Difluoro(2-(((3S,6S,7aS,8aR,9aR)-5-oxo-3-(4-((S)-tetrahydrofuran-3-carbonyl)piperazine-1-carbonyl)decahydro-1H-cyclopropa[d]pyrrolo[1,2-a]azocin-6-yl)carbamoyl)benzo[b]thiophen-5-yl)methyl)phosphonic acid]
4 | 0.3 to 3 | 0.1 to 1 | CC(=O)N1C[C@H](NC(=O)[C@@H]2CC[C@@H]3C[C@H]4C[C@H]4C[C@H](NC(=O)c4cc5cc(C(F)(F)P(=O)(O)O)ccc5s4)C(=O)N32)[C@@H](O)C1 [Example 9, ((2-(((3S,6S,7aS,8aR,9aR)-3-(((3S,4S)-1-acetyl-4-hydroxypyrrolidin-3-yl)carbamoyl)-5-oxodecahydro-1H-cyclopropa[d]pyrrolo[1,2-a]azocin-6-yl)carbamoyl)benzo[b]thiophen-5-yl)difluoromethyl)phosphonic acid]
5 | 0.3 to 3 | < 0.1 | C[C@@]12C[C@H]3CC[C@@H](C(=O)N4CC(c5cccnc5)C4)N3C(=O)[C@@H](NC(=O)c3cc4cc(C(F)(F)P(=O)(O)O)ccc4s3)C[C@@H]1C2 [Example 230, (difluoro(2-(((3S,6S,7aS,8aR,9aR)-8a-methyl-5-oxo-3-(3-(pyridin-3-yl)azetidine-1-carbonyl)decahydro-1H-cyclopropa[d]pyrrolo[1,2-a]azocin-6-yl)carbamoyl)benzo[b]thiophen-5-yl)methyl)phosphonic acid]
6 | 3 to 30 | < 0.1 | C[C@]12CC[C@H](NC(=O)c3cc4cc(C(F)(F)P(=O)(O)O)ccc4s3)C(=O)N3[C@H](CC[C@H]3C(=O)N3CC(c4cccnc4)C3)[C@H]1C2 [Example 234, (difluoro(2-(((3S,6S,8aR,9aS,9bR)-8a-methyl-5-oxo-3-(3-(pyridin-3-yl)azetidine-1-carbonyl)decahydro-1H-cyclopropa[c]pyrrolo[1,2-a]azocin-6-yl)carbamoyl)benzo[b]thiophen-5-yl)methyl)phosphonic acid]
7 | > 30 | 0.1 to 1 | C[C@]12CC[C@H](NC(=O)c3cc4cc(CP(=O)(O)O)ccc4s3)C(=O)N3[C@H](CC[C@H]3C(=O)N3CC(c4cccnc4)C3)[C@H]1C2 [Example 235, ((2-(((3S,6S,8aR,9aS,9bR)-8a-methyl-5-oxo-3-(3-(pyridin-3-yl)azetidine-1-carbonyl)decahydro-1H-cyclopropa[c]pyrrolo[1,2-a]azocin-6-yl)carbamoyl)benzo[b]thiophen-5-yl)methyl)phosphonic acid]
8 | 3 to 30 | 0.1 to 1 | COC1(c2nccn2C)CN(C(=O)[C@@H]2CC[C@@H]3C[C@@]4(C)C[C@H]4C[C@H](NC(=O)c4cc5cc(C(F)(F)P(=O)(O)O)ccc5s4)C(=O)N32)C1 [Example 237, (difluoro(2-(((3S,6S,7aS,8aR,9aR)-3-(3-methoxy-3-(1-methyl-1H-imidazol-2-yl)azetidine-1-carbonyl)-8a-methyl-5-oxodecahydro-1H-cyclopropa[d]pyrrolo[1,2-a]azocin-6-yl)carbamoyl)benzo[b]thiophen-5-yl)methyl)phosphonic acid]
9 | > 30 | 0.1 to 1 | C[C@]12C[C@H]3CC[C@@H](C(=O)N4CC(c5cccnc5)C4)N3C(=O)[C@@H](NC(=O)c3cc4cc(CP(=O)(O)O)ccc4s3)C[C@H]1C2 [Example 238, ((2-(((3S,6S,7aR,8aS,9aR)-8a-methyl-5-oxo-3-(3-(pyridin-3-yl)azetidine-1-carbonyl)decahydro-1H-cyclopropa[d]pyrrolo[1,2-a]azocin-6-yl)carbamoyl)benzo[b]thiophen-5-yl)methyl)phosphonic acid]
10 | > 30 | < 0.1 | Cc1ccncc1C1CN(C(=O)[C@@H]2CC[C@@H]3C[C@@H]4C[C@@H]4C[C@H](NC(=O)c4cc5cc(CP(=O)(O)O)ccc5s4)C(=O)N32)C1 [Example 243, ((2-(((3S,6S,7aR,8aS,9aR)-3-(3-(4-methylpyridin-3-yl)azetidine-1-carbonyl)-5-oxodecahydro-1H-cyclopropa[d]pyrrolo[1,2-a]azocin-6-yl)carbamoyl)benzo[b]thiophen-5-yl)methyl)phosphonic acid]
11 | 3 to 30 | 1 to 10 | CC(=O)N1C[C@H](NC(=O)[C@@H]2CC[C@@H]3C[C@@H]4C[C@@H]4C[C@H](NC(=O)c4cc5cc(CP(=O)(O)O)ccc5s4)C(=O)N32)[C@@H](F)C1 [Example 244, ((2-(((3S,6S,7aR,8aS,9aR)-3-(((3S,4S)-1-acetyl-4-fluoropyrrolidin-3-yl)carbamoyl)-5-oxodecahydro-1H-cyclopropa[d]pyrrolo[1,2-a]azocin-6-yl)carbamoyl)benzo[b]thiophen-5-yl)methyl)phosphonic acid]
12 | 3 to 30 | 0.1 to 1 | O=C(N[C@H]1C[C@@H]2C[C@@H]2C[C@H]2CC[C@@H](C(=O)N[C@H]3CN(c4ccccn4)C[C@@H]3F)N2C1=O)c1cc2cc(CP(=O)(O)O)ccc2s1 [Example 246, ((2-(((3S,6S,7aS,8aR,9aR)-3-(((3S,4S)-4-fluoro-1-(pyridin-2-yl)pyrrolidin-3-yl)carbamoyl)-5-oxodecahydro-1H-cyclopropa[d]pyrrolo[1,2-a]azocin-6-yl)carbamoyl)benzo[b]thiophen-5-yl)methyl)phosphonic acid]
13 | > 30 | < 0.1 | O=C(N[C@H]1C[C@@H]2C[C@@H]2C[C@H]2CC[C@@H](C(=O)N3CC(c4cnccc4F)C3)N2C1=O)c1cc2cc(CP(=O)(O)O)ccc2s1 [Example 247, ((2-(((3S,6S,7aS,8aR,9aR)-3-(3-(4-fluoropyridin-3-yl)azetidine-1-carbonyl)-5-oxodecahydro-1H-cyclopropa[d]pyrrolo[1,2-a]azocin-6-yl)carbamoyl)benzo[b]thiophen-5-yl)methyl)phosphonic acid]
14 | 0.3 to 3 | < 0.1 | O=C(N[C@H]1C[C@H]2C[C@H]2C[C@H]2CC[C@@H](C(=O)N3CC(c4cnccc4F)C3)N2C1=O)c1cc2cc(C(F)P(=O)(O)O)ccc2s1 (stereo partly drawn) [Example 248, (fluoro(2-(((3S,6S,7aR,8aS,9aR)-3-(3-(4-fluoropyridin-3-yl)azetidine-1-carbonyl)-5-oxodecahydro-1H-cyclopropa[d]pyrrolo[1,2-a]azocin-6-yl)carbamoyl)benzo[b]thiophen-5-yl)methyl)phosphonic acid]

From patent US20250215030A1, “STAT MODULATORS AND USES THEREOF” (Recludix Pharma, Inc., priority 2022, published 2025)
